Laboratory results as given in article PMC8035703, “Effect of Synchronous Versus Sequential Regimens on the Pharmacokinetics and Biodistribution of Regorafenib with Irradiation” (Pharmaceutics, 2021).
“Also recorded” adds a separate entry of the source. Read-outs that look alike come from different tables or passages of the source.

Assay: Organ distribution of regorafenib in rats with or without RT
Format: in vivo, Sprague-Dawley rats
Settings: for concentration at 4 h: Sprague-Dawley, 16 mg/kg, 4 h after oral administration
Method: According to the formula used to translate doses from animal to human, human equivalent dose (HED, mg/kg) = animal dose (mg/kg) × animal km/human km, we calculated the daily dose of regorafenib for rats to be 16 (mg/kg/day). The rats were randomly divided into ten groups with six rats in each group. The concurrent groups treated with regorafenib 1 h after RT, in the same day, to mimic regorafenib concurrent with RT in the daily practice. The sequential groups treated with regorafenib following RT (not in the same day), to mimic RT followed by regorafenib in the daily practice. The one fraction study group included (A) a sham group, regorafenib with RT0 Gy (regorafenib × 1 d); concurrent groups treated with regorafenib 1 h after (B) RT2 Gy with 1 fraction (RT2 Gy × 1 f’x) and (D) RT9 Gy with 1 fraction (RT9 Gy × 1 f’x); and sequential groups treated with regorafenib 24 h after (C) RT2 Gy × 1 f’x and (E) RT9 Gy × 1 f’x. Continued treatment mimicking clinical practice was applied to (A) a sham group, regorafenib (p.o. (per os), q.d. × 3 d) with RT0 Gy (regorafenib × 3 d); concurrent groups treated with regorafenib (p.o., q.d. × 3 d) 1 h after (B) RT2 Gy with 3 fractions (RT2 Gy × 3 f’x) and (D) RT9 Gy with 3 fractions (RT9Gy × 3 f’x); and sequential groups treated with regorafenib 24 h (p.o., q.d. × 3 d) after (C) RT2 Gy × 3 f’x and (E) RT9 Gy × 3 f’x. (Figure 1A,B).
Organs, including the brain, liver, heart, spleen, lung and kidney, were collected, weighed and stored at −20 °C, until analysis.
The organ samples were homogenized in 50% aqueous acetonitrile (sample weight: volume = 1:5) and centrifuged at 13,000× g, for 10 min, at 4 °C. The supernatant was stored at −20 °C, until analysis. Additionally, 150 μL of IS solution (diethylstilbestrol) was combined with each organ sample (50 μL) for protein precipitation. Finally, the filtrate (20 μL) was analyzed by HPLC.

CNC(=O)c1cc(Oc2ccc(NC(=O)Nc3ccc(Cl)c(C(F)(F)F)c3)c(F)c2)ccn1 [regorafenib, Regorafenib]
concentration at 4 h (rat, lung, oral, rat, RT9 Gy × 1 f'x with regorafenib 16 mg/kg × 1 d (concurrent), read-out: Concentration in lung): 170 ± 140 ng/g
concentration at 4 h (rat, spleen, oral, rat, RT2 Gy × 1 f'x followed by regorafenib 16 mg/kg × 1 d (sequential), read-out: Concentration in spleen): 680 ± 300 ng/g
concentration at 4 h (rat, spleen, oral, rat, RT2 Gy × 3 f'x followed by regorafenib 16 mg/kg × 3 d (sequential), read-out: Concentration in spleen): 410 ± 240 ng/g
concentration at 4 h (rat, spleen, oral, rat, RT2 Gy × 3 f'x with regorafenib 16 mg/kg × 3 d (concurrent), read-out: Concentration in spleen): 80 ± 60 ng/g
concentration at 4 h (rat, spleen, oral, rat, RT9 Gy × 1 f'x with regorafenib 16 mg/kg × 1 d (concurrent), read-out: Concentration in spleen): 140 ± 70 ng/g
Biodistribution in heart, liver, lung, spleen and kidneys (in words) (concurrent RT2 Gy × 3 f'x and RT9 Gy × 3 f'x vs control (regorafenib × 3 d)): clearly decreased the biodistribution of regorafenib; also recorded: obviously decreased the biodistribution of regorafenib
concentration at 4 h (male, rat, brain, oral, rat, RT2 Gy × 1 f'x with regorafenib 16 mg/kg × 1 d (concurrent), read-out: Concentration in brain): 20 ± 30 ng/g
concentration at 4 h (male, rat, brain, oral, rat, RT9 Gy × 1 f'x followed by regorafenib 16 mg/kg × 1 d (sequential), read-out: Concentration in brain): 60 ± 50 ng/g
concentration at 4 h (male, rat, brain, oral, rat, RT9 Gy × 3 f'x followed by regorafenib 16 mg/kg × 3 d (sequential), read-out: Concentration in brain): 40 ± 80 ng/g
concentration at 4 h (male, rat, brain, oral, rat, RT9 Gy × 3 f'x with regorafenib 16 mg/kg × 3 d (concurrent), read-out: Concentration in brain): 10 ± 20 ng/g
concentration at 4 h (male, rat, brain, po, rat, 16 mg/kg p.o. × 1 d, no RT, read-out: Concentration in brain): 30 ± 40 ng/g
concentration at 4 h (male, rat, brain, po, rat, 16 mg/kg p.o. × 3 d, no RT, read-out: Concentration in brain): 10 ± 20 ng/g
concentration at 4 h (male, rat, heart, oral, rat, RT2 Gy × 1 f'x with regorafenib 16 mg/kg × 1 d (concurrent), read-out: Concentration in heart): 290 ± 170 ng/g
concentration at 4 h (male, rat, heart, oral, rat, RT9 Gy × 1 f'x followed by regorafenib 16 mg/kg × 1 d (sequential), read-out: Concentration in heart): 870 ± 140 ng/g
concentration at 4 h (male, rat, heart, oral, rat, RT9 Gy × 3 f'x followed by regorafenib 16 mg/kg × 3 d (sequential), read-out: Concentration in heart): 170 ± 270 ng/g
concentration at 4 h (male, rat, heart, oral, rat, RT9 Gy × 3 f'x with regorafenib 16 mg/kg × 3 d (concurrent), read-out: Concentration in heart): 90 ± 70 ng/g
concentration at 4 h (male, rat, heart, po, rat, 16 mg/kg p.o. × 1 d, no RT, read-out: Concentration in heart): 450 ± 310 ng/g
concentration at 4 h (male, rat, heart, po, rat, 16 mg/kg p.o. × 3 d, no RT, read-out: Concentration in heart): 250 ± 100 ng/g
concentration at 4 h (male, rat, kidney, oral, rat, RT2 Gy × 1 f'x with regorafenib 16 mg/kg × 1 d (concurrent), read-out: Concentration in kidneys): 210 ± 110 ng/g
concentration at 4 h (male, rat, kidney, oral, rat, RT9 Gy × 1 f'x followed by regorafenib 16 mg/kg × 1 d (sequential), read-out: Concentration in kidneys): 590 ± 340 ng/g
concentration at 4 h (male, rat, kidney, oral, rat, RT9 Gy × 3 f'x followed by regorafenib 16 mg/kg × 3 d (sequential), read-out: Concentration in kidneys): 400 ± 430 ng/g
concentration at 4 h (male, rat, kidney, oral, rat, RT9 Gy × 3 f'x with regorafenib 16 mg/kg × 3 d (concurrent), read-out: Concentration in kidneys): 170 ± 120 ng/g
concentration at 4 h (male, rat, kidney, po, rat, 16 mg/kg p.o. × 1 d, no RT, read-out: Concentration in kidneys): 340 ± 190 ng/g
concentration at 4 h (male, rat, kidney, po, rat, 16 mg/kg p.o. × 3 d, no RT, read-out: Concentration in kidneys): 650 ± 250 ng/g
concentration at 4 h (male, rat, liver, oral, rat, RT2 Gy × 1 f'x with regorafenib 16 mg/kg × 1 d (concurrent), read-out: Concentration in liver): 1100 ± 510 ng/g
concentration at 4 h (male, rat, liver, oral, rat, RT9 Gy × 1 f'x followed by regorafenib 16 mg/kg × 1 d (sequential), read-out: Concentration in liver): 2390 ± 1200 ng/g
concentration at 4 h (male, rat, liver, oral, rat, RT9 Gy × 3 f'x followed by regorafenib 16 mg/kg × 3 d (sequential), read-out: Concentration in liver): 1160 ± 1120 ng/g
concentration at 4 h (male, rat, liver, oral, rat, RT9 Gy × 3 f'x with regorafenib 16 mg/kg × 3 d (concurrent), read-out: Concentration in liver): 700 ± 290 ng/g
concentration at 4 h (male, rat, liver, po, rat, 16 mg/kg p.o. × 1 d, no RT, read-out: Concentration in liver): 1460 ± 340 ng/g
concentration at 4 h (male, rat, liver, po, rat, 16 mg/kg p.o. × 3 d, no RT, read-out: Concentration in liver): 1450 ± 740 ng/g
concentration at 4 h (male, rat, lung, oral, rat, RT2 Gy × 1 f'x with regorafenib 16 mg/kg × 1 d (concurrent), read-out: Concentration in lung): 290 ± 190 ng/g
concentration at 4 h (male, rat, lung, oral, rat, RT9 Gy × 1 f'x followed by regorafenib 16 mg/kg × 1 d (sequential), read-out: Concentration in lung): 1010 ± 700 ng/g
concentration at 4 h (male, rat, lung, oral, rat, RT9 Gy × 3 f'x followed by regorafenib 16 mg/kg × 3 d (sequential), read-out: Concentration in lung): 370 ± 230 ng/g
concentration at 4 h (male, rat, lung, oral, rat, RT9 Gy × 3 f'x with regorafenib 16 mg/kg × 3 d (concurrent), read-out: Concentration in lung): 250 ± 180 ng/g
concentration at 4 h (male, rat, lung, po, rat, 16 mg/kg p.o. × 1 d, no RT, read-out: Concentration in lung): 470 ± 180 ng/g
concentration at 4 h (male, rat, lung, po, rat, 16 mg/kg p.o. × 3 d, no RT, read-out: Concentration in lung): 1120 ± 250 ng/g
concentration at 4 h (male, rat, spleen, oral, rat, RT2 Gy × 1 f'x with regorafenib 16 mg/kg × 1 d (concurrent), read-out: Concentration in spleen): 190 ± 70 ng/g
concentration at 4 h (male, rat, spleen, oral, rat, RT9 Gy × 1 f'x followed by regorafenib 16 mg/kg × 1 d (sequential), read-out: Concentration in spleen): 680 ± 450 ng/g
concentration at 4 h (male, rat, spleen, oral, rat, RT9 Gy × 3 f'x followed by regorafenib 16 mg/kg × 3 d (sequential), read-out: Concentration in spleen): 230 ± 310 ng/g
concentration at 4 h (male, rat, spleen, oral, rat, RT9 Gy × 3 f'x with regorafenib 16 mg/kg × 3 d (concurrent), read-out: Concentration in spleen): 100 ± 80 ng/g
concentration at 4 h (male, rat, spleen, po, rat, 16 mg/kg p.o. × 1 d, no RT, read-out: Concentration in spleen): 260 ± 100 ng/g
concentration at 4 h (male, rat, spleen, po, rat, 16 mg/kg p.o. × 3 d, no RT, read-out: Concentration in spleen): 380 ± 220 ng/g
Concentrations of regorafenib in the brain (in words) (rat, all regimens): very limited
Biodistribution in heart, liver, lung, spleen and kidneys (in words) (sequential RT2 Gy × 1 f'x and RT9 Gy × 1 f'x vs control (regorafenib × 1 d)): increased the biodistribution of regorafenib
